Assay results: the supplement of paper PMC11061612

Tests used:
[1] = compound: C1CN(CCC1(C(=O)N[C@@H](CCO)C2=CC=C(C=C2)Cl)N)C3=NC=NC4=C3C=CN4 [AZD5363]; settings: max 10 µM
Outline: (§1)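 Following 24 hours at 37°C and 5% CO2, cancer cell lines in 1536-well plates with 7.5 μl DMEM/F12 or RPMI and 10% FBS were dosed for 72 hours, final DMSO typically being 0.2%. CellTiter-Glo 2.0 luminescence, scaled between blank-well and DMSO-well means, gave the viability readout. Dose responses were fitted to a two-parameter logistic curve with a non-linear mixed effects model, and the single-agent IC50 was derived from this fit.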

[2] = compound: C[C@@H](Nc1cc(F)cc(F)c1)c1cc(C(=O)N(C)C)cc2c(=O)cc(N3CCOCC3)oc12 [AZD8186]; settings: max 10 µM
Outline: as §1

[3] = compound: CN(CC[C@H](CSC1=CC=CC=C1)NC2=C(C=C(C=C2)S(=O)(=O)NC(=O)C3=CC=C(C=C3)N4CCC(CC4)[C@H](C5=CC=CC=C5C6=CC=C(C=C6)Cl)O)S(=O)(=O)C(F)(F)F)CCO [AZD4320]; settings: max 1 µM
Outline: as §1

[4] = compound: COc1cc([C@@H]2c3cc4c(cc3[C@@H](O[C@@H]3O[C@@H]5CO[C@@H](C)O[C@H]5[C@H](O)[C@H]3O)[C@H]3COC(=O)[C@H]23)OCO4)cc(OC)c1O [Etoposide]; settings: max 10 µM
Outline: as §1

[5] = compound: O=c1[nH]cc(F)c(=O)[nH]1 [5-Fluorouracil]; settings: max 20 µM
Outline: as §1

[6] = compound: CC1(C)CCC(CN2CCN(c3ccc(C(=O)NS(=O)(=O)c4ccc(NCC5CCOCC5)c([N+](=O)[O-])c4)c(Oc4cnc5[nH]ccc5c4)c3)CC2)=C(c2ccc(Cl)cc2)C1 [Venetoclax]; settings: max 1 µM
Outline: as §1

[7] = compound: O=C(Nc1ccc2[nH]nc(-c3ccncc3)c2c1)[C@@H]1CCN(CC(=O)N2CCN(c3ccc(-c4ncccn4)cc3)CC2)C1; settings: max 5 µM
Outline: as §1

[8] = compound: COc1nnc2ccc(N3CCC(c4ccc(OCCN5CCN(C)C(=O)[C@H]5C)cc4)CC3)nn12 [AZD5153]; settings: max 1 µM
Outline: as §1

[9] = compound: CC1=CN2[C@@H](C1)C=NC3=CC(=C(C=C3C2=O)OC)OCCCCCOC4=C(C=C5C(=C4)N=C[C@@H]6CC(=CN6C5=O)C)OC [SG3199]; settings: max 0.001 µM
Outline: as §1

[10] = compound: CC(C)n1c(=O)n(C)c2cnc3cc(F)c(-c4ccc(OCCCN5CCCCC5)nc4)cc3c21 [AZD1390]; settings: max 0.3 µM
Outline: as §1

[11] = compound: CC(=O)Nc1cccc(-n2c(=O)n(C3CC3)c(=O)c3c(Nc4ccc(I)cc4F)n(C)c(=O)c(C)c32)c1 [Trametinib]; settings: max 1 µM
Outline: as §1

[12] = compound: CC(=O)O[C@H]1C(=O)[C@@]2(C)[C@H]([C@H](OC(=O)c3ccccc3)[C@]3(O)C[C@H](OC(=O)[C@H](O)[C@@H](NC(=O)c4ccccc4)c4ccccc4)C(C)=C1C3(C)C)[C@]1(OC(C)=O)CO[C@@H]1C[C@@H]2O [Paclitaxel]; settings: max 3 µM
Outline: as §1

[13] = compound: C1CC(C1)(C(=O)[O-])C(=O)[O-].N.N.[Pt+2] [Carboplatin]; settings: max 10 µM
Outline: as §1

[14] = compound: Cc1c2c(nn1C)CSCc1cc(n(C)n1)CSc1cc(c3ccccc3c1)OCCCc1c(C(=O)O)n(C)c3c-2c(Cl)ccc13 [AZD5991]; settings: max 1 µM
Outline: as §1

[15] = compound: O=C(c1cc(Cc2n[nH]c(=O)c3ccccc23)ccc1F)N1CCN(C(=O)C2CC2)CC1 [Olaparib]; settings: max 10 µM
Outline: as §1

[16] = compound: Cc1nc(-c2cn3c(n2)-c2ccc(-c4cnn(C(C)(C)C(N)=O)c4)cc2OCC3)n(C(C)C)n1 [Taselisib]; settings: max 10 µM
Outline: as §1

[17] = compound: CN(C)CCCOc1ccc(-c2ccc3ncc4c(c3c2)n(C2CCOCC2)c(=O)n4C)cn1 [AZD0156]; settings: max 3 µM
Outline: as §1

[18] = compound: Nc1ccn([C@@H]2O[C@H](CO)[C@@H](O)C2(F)F)c(=O)n1 [Gemcitabine]; settings: max 0.3 µM
Outline: as §1

[19] = compound: COc1cc2ncnc(Nc3ccc(F)c(Cl)c3)c2cc1OCCCN1CCOCC1 [Gefitinib]; settings: max 10 µM
Outline: as §1

[20] = compound: C=CCn1c(=O)c2cnc(Nc3ccc(N4CCN(C)CC4)cc3)nc2n1-c1cccc(C(C)(C)O)n1 [AZD1775]; settings: max 3 µM
Outline: as §1

[21] = compound: Cc1cc2ncnn2cc1Nc1ncc2c(n1)n(C1CCOCC1)c(=O)n2C [AZD7648]; settings: max 10 µM
Outline: as §1

[22] = compound: CCN(CCO)CCCOc1ccc2c(Nc3cc(CC(=O)Nc4cccc(F)c4)[nH]n3)ncnc2c1 [AZD2811]; settings: max 1 µM
Outline: as §1

[23] = compound: C[C@@H](c1ccc2nccn2c1)n1nnc2ncc(-c3cnn(C)c3)nc21 [Savolitinib]; settings: max 1 µM
Outline: as §1

[24] = compound: COc1cccc(OCCCN)c1-c1cc(Nc2cnc(C#N)cn2)n[nH]1 [Prexasertib]; settings: max 1 µM
Outline: as §1

[25] = compound: CC1=C(C(=CC=C1)Cl)NC(=O)C2=CN=C(S2)NC3=CC(=NC(=N3)C)N4CCN(CC4)CCO [Dasatinib]; settings: max 2 µM
Outline: as §1

[26] = compound: COc1cc(Nc2ncc3c(n2)-c2ccc(Cl)cc2C(c2c(F)cccc2OC)=NC3)ccc1C(=O)O [Alisertib]; settings: max 10 µM
Outline: as §1

[27] = compound: CC(=O)c1c(C)c2cnc(Nc3ccc(N4CCNCC4)cn3)nc2n(C2CCCC2)c1=O [Palbociclib]; settings: max 10 µM
Outline: as §1

[28] = compound: NC1(c2ccc(-c3nc4ccn5c(=O)[nH]nc5c4cc3-c3ccccc3)cc2)CCC1 [MK-2206]; settings: max 10 µM
Outline: as §1

[29] = compound: CCc1c2c(nc3ccc(O)cc13)-c1cc3c(c(=O)n1C2)COC(=O)[C@]3(O)CC [SN-38]; settings: max 0.3 µM
Outline: as §1

[30] = compound: COc1cccc2c1C(=O)c1c(O)c3c(c(O)c1C2=O)C[C@@](O)(C(=O)CO)C[C@@H]3O[C@H]1C[C@H](N)[C@H](O)[C@H](C)O1 [Doxorubicin]; settings: max 1 µM
Outline: as §1

[31] = compound: C[C@@H](Oc1cc(-c2cnn(C3CCNCC3)c2)cnc1N)c1c(Cl)ccc(F)c1Cl [Crizotinib]; settings: max 10 µM
Outline: as §1

[32] = compound: CS(=O)(=O)CCNCc1ccc(-c2ccc3ncnc(Nc4ccc(OCc5cccc(F)c5)c(Cl)c4)c3c2)o1 [Lapatinib]; settings: max 10 µM
Outline: as §1

[33] = compound: Cn1cnc2c(F)c(Nc3ccc(Br)cc3Cl)c(C(=O)NOCCO)cc21 [Selumetinib]; settings: max 10 µM
Outline: as §1

[34] = compound: C[C@@H]1COCCN1C2=NC(=NC(=C2)C3(CC3)[S@](=N)(=O)C)C4=C5C=CNC5=NC=C4 [AZD6738]; settings: max 10 µM
Outline: as §1

[35] = compound: N#Cc1cnc(Nc2cc(NC[C@H]3CNCCO3)c(C(F)(F)F)cn2)cn1 [SRA737]; settings: max 10 µM
Outline: as §1

Row | Cell Line | IC50, cell viability 72 h [1] [µM] | IC50, cell viability 72 h [2] [µM] | IC50, cell viability 72 h [3] [nM] | IC50, cell viability 72 h [4] [µM] | IC50, cell viability 72 h [5] [µM] | IC50, cell viability 72 h [6] [nM] | IC50, cell viability 72 h [7] [µM] | IC50, cell viability 72 h [8] [nM] | IC50, cell viability 72 h [9] [nM] | IC50, cell viability 72 h [10] [nM] | IC50, cell viability 72 h [11] [nM] | IC50, cell viability 72 h [12] [nM] | IC50, cell viability 72 h [13] [µM] | IC50, cell viability 72 h [14] [nM] | IC50, cell viability 72 h [15] [µM] | IC50, cell viability 72 h [16] [µM] | IC50, cell viability 72 h [17] [nM] | IC50, cell viability 72 h [18] [nM] | IC50, cell viability 72 h [19] [µM] | IC50, cell viability 72 h [20] [nM] | IC50, cell viability 72 h [21] [µM] | IC50, cell viability 72 h [22] [nM] | IC50, cell viability 72 h [23] [nM] | IC50, cell viability 72 h [24] [nM] | IC50, cell viability 72 h [25] [nM] | IC50, cell viability 72 h [26] [µM] | IC50, cell viability 72 h [27] [µM] | IC50, cell viability 72 h [28] [µM] | IC50, cell viability 72 h [29] [nM] | IC50, cell viability 72 h [30] [nM] | IC50, cell viability 72 h [31] [nM] | IC50, cell viability 72 h [32] [µM] | IC50, cell viability 72 h [33] [µM] | IC50, cell viability 72 h [34] [µM] | IC50, cell viability 72 h [35] [nM]
1 | CAL-62 (Thyroid Gland Carcinoma) | > 10 | > 10 | > 1000 | 3.42 | > 20 | > 1000 | 4.09 | 127 | > 1 | > 300 | 551 | 7.33 | > 10 | > 1000 | > 10 | > 10 | > 3000 | 35.5 | > 10 | 1320 | > 10 | > 1000 | > 1000 | 158 | 784 | > 10 | > 10 | > 10 | 4.59 | 372 | > 10000 | > 10 | > 10 | 5.21 | > 10000
2 | COLO-680N (Esophageal Squamous Cell Carcinoma) | > 10 | > 10 | > 1000 | > 10 | > 20 | > 1000 | > 5 | > 1000 | > 1 | > 300 | > 1000 | 1300 | > 10 | > 1000 | > 10 | > 10 | > 3000 | > 300 | > 10 | > 3000 | > 10 | > 1000 | > 1000 | > 1000 | > 2000 | > 10 | > 10 | > 10 | > 300 | > 1000 | > 10000 | > 10 | > 10 | > 10 | > 10000
3 | HSC-39 (Gastric Carcinoma) | > 10 | > 10 | > 1000 | 1.23 | 16.6 | 561 | 2.88 | 322 | > 1 | > 300 | 423 | 4.55 | > 10 | 55.6 | > 10 | 0.791 | > 3000 | 11.7 | > 10 | 398 | > 10 | 150 | > 1000 | 4.86 | > 2000 | < 0.01 | 4.37 | > 10 | 7.39 | 160 | 2060 | 5.62 | > 10 | 0.538 | 519
4 | IST-MES1 (Mesothelioma) | > 10 | > 10 | > 1000 | > 10 | > 20 | > 1000 | > 5 | 246 | > 1 | > 300 | > 1000 | 504 | > 10 | > 1000 | > 10 | > 10 | > 3000 | 181 | > 10 | > 3000 | > 10 | > 1000 | > 1000 | > 1000 | 243 | > 10 | > 10 | > 10 | 61.4 | 430 | > 10000 | > 10 | > 10 | > 10 | > 10000
5 | L-1236 (Hodgkin's Lymphoma) | 2.81 | 2.08 | 89.5 | 3.35 | > 20 | 861 | > 5 | 13.2 | > 1 | > 300 | > 1000 | 36.2 | > 10 | > 1000 | > 10 | 9.38 | > 3000 | 17.7 | > 10 | 85.4 | > 10 | > 1000 | > 1000 | 32.7 | > 2000 | > 10 | 6.34 | 8.4 | 62.4 | > 1000 | 1940 | > 10 | > 10 | 3.96 | 969
